Data: PubChem BioAssay AID489032 (Sanford-Burnham Center for Chemical Genomics, 2010)
Activity calls are given as the source filed them. No rule for the calls is given here.

tested on: UPR adaptive arm reporter cells, luciferase luminescence; test: activators of adaptive UPR signalling, dose response, cell-based, luciferase luminescence (AID 489032)

| Compound | EC50 |
| --- | --- |
| CC1C/C(=N/Nc2nc3ccccc3[nH]2)CC(C)(C)C1 (centres undefined) | > 80 µM (inactive) |
| CC(C)Cn1c2c(c(=O)[nH]c1=O)C(C(F)(F)F)(C(F)(F)F)N=C(CCC1CCCCC1)N2 | > 80 µM (inactive) |
| Nc1c(C(=O)Nc2ccc(S(=O)(=O)N3CCCC3)cc2)sc2nc3ccc(OC(F)(F)F)cc3cc12 | 12 µM |
| CCOC(=O)c1c(NC(C)=O)sc2c(OCC(O)CNC(C)(C)C)c(Br)ccc12 (centres undefined) | > 80 µM (inactive) |
| CCc1nc(N=Nc2c(O)[nH]c3ccccc23)c2c3c(sc2n1)CCC3 | 16.1 µM |
| Cc1ccc(O)c(NC(=S)NC(=O)Cc2ccc(Cl)cc2)c1 | 27.1 µM (inactive) |
| CC1=C(CC/C(C)=N/NC(N)=S)C(C)(C)CCC1 | 29.3 µM (inactive) |
| COC(=O)c1c(NC(=O)c2nc3ccccc3s2)sc2c1CC(C)(C)NC2(C)C | > 80 µM (inactive) |
| O=C(/C(=N/N=C/c1ccc(O)c(O)c1)c1ccccc1)c1ccccc1 | > 80 µM (inactive) |
| N#C/C(=C\Nc1ccc2cn[nH]c2c1)c1nc(-c2ccc(Cl)cc2)cs1 | 15.1 µM |
| CCCCCCCCCCOC(=O)Cn1c(COc2ccccc2C)[n+](C)c2ccccc21 | > 80 µM (inactive) |
| Cc1ccc2c(c1)C(c1ccc(N3CCOCC3)cc1)=NNC(c1cccs1)=N2 | 46.9 µM (inactive) |
| COc1cc(/C=C(\C#N)c2nc3ccccc3[nH]2)cc(Br)c1OCc1ccc(F)cc1 | > 80 µM (inactive) |
| Cc1ccc(NC(=O)Cn2c(/C=C/c3ccccc3)nc3ccccc32)cc1C | > 80 µM (inactive) |
| COc1ccc2oc(-c3ccc(C)c(NC(=O)c4ccc(N5CCOCC5)c([N+](=O)[O-])c4)c3)nc2c1 | > 80 µM (inactive) |
| CC(C)(C)c1ccc(C(=O)Nc2ccc(O)c3c(=O)cc(-c4cccc(Cl)c4)oc23)cc1 | > 80 µM (inactive) |
| CN(C)CC(CCC(CN(C)C)C(O)(c1ccccc1)c1ccccc1)C(O)(c1ccccc1)c1ccccc1 (centres undefined) | > 80 µM (inactive) |
| Cc1cc(NC(=O)CSc2nc3sc(C)c(C)c3c(=O)n2C2CCCC2)no1 | > 80 µM (inactive) |
| O=CC1=C(c2ccccc2)Oc2ccccc2O1 | > 80 µM (inactive) |
| Cc1nn(Cc2ccccc2)c(C)c1NC(=O)CSc1nc(C2CC2)nc2c1cnn2-c1ccccc1 | 47.2 µM (inactive) |
| CCOc1cc(/C=N/NC(=O)Cn2nc([N+](=O)[O-])cc2C)cc(Br)c1OCc1ccccc1C | > 80 µM (inactive) |
| Cc1cc(NC(=O)c2cncc(Br)c2)ccc1NC(=O)c1cc2ccccc2o1 | > 80 µM (inactive) |

| Compound | EC50 |
| --- | --- |
| O=C(c1ccc2c(c1)[nH]c(=S)n1c3ccccc3nc21)N1CCN(c2cccc(Cl)c2)CC1 | > 80 µM (inactive) |
| Cc1ccc(-c2cc(C(F)F)n3ncc(C(=O)N4CCc5ccccc54)c3n2)cc1 | 27.2 µM (inactive) |
| OCCNc1nc(Nc2ccc(Cl)c(Cl)c2)nc2ccccc12 | > 80 µM (inactive) |
| COc1ccccc1C(=O)NC(=S)NNC(=O)c1sc2ccccc2c1Cl | > 80 µM (inactive) |
| CCC(C)Nc1nc(N)c([N+](=O)[O-])c(NC2CCCCC2)n1 (centres undefined) | 55.9 µM (inactive) |
| CCc1cc2c(=O)c(-c3cnn(-c4ccccc4)c3)c(C)oc2cc1OCC(=O)Nc1cccc(C)c1 | > 80 µM (inactive) |
| Nc1nc(Nc2cccc(F)c2)nc2ccccc12 | 73.9 µM (inactive) |
| CC1=CC(C)(C)N2C(=O)C(=O)c3cc(OC(=O)c4ccco4)cc1c32 | 53.1 µM (inactive) |
| CCc1ccc(N2C(=O)NC(=O)/C(=C\c3cccn3CCOc3ccc(C(C)C)cc3)C2=O)cc1 | > 80 µM (inactive) |
| COc1ccc(-c2cc(C(F)F)n3ncc(C(=O)N4CCc5ccccc5C4)c3n2)cc1 | 28.6 µM (inactive) |
| CCOC(=O)c1c(NC(=O)CSc2nnc3c(n2)[nH]c2ccc(F)cc23)sc(C(C)=O)c1C | 21.8 µM (inactive) |
| Cc1ccc(Cc2cnc(NC(=O)/C(C#N)=C/c3ccc(-c4cccc([N+](=O)[O-])c4)o3)s2)cc1 | 18.1 µM |
| Cc1ccc2c(=O)[nH]c(Nc3nc(C)cc(-c4ccccc4)n3)nc2c1 | > 80 µM (inactive) |
| N#CCC(=O)N/N=C/c1cn(Cc2ccc3ccccc3c2)c2ccccc12 | 71 µM (inactive) |
| COc1ccc(C2c3ccc4ccccc4c3Oc3ncn(CCCN(C)C)c(=N)c32)cc1 (centres undefined) | > 80 µM (inactive) |
| Oc1cccc2ccc(/C=C/c3ccc(Br)s3)nc12 | > 80 µM (inactive) |
| Nc1cccc(-c2nc3cc(S(=O)(=O)c4ccc5oc(-c6cccc(N)c6)nc5c4)ccc3o2)c1 | 24.1 µM (inactive) |
| COc1cc(NC(=O)c2cncc(-c3ccc(C#N)cc3)c2)cc(C(=O)Nc2cccc(C(F)(F)F)c2)c1 | 46.3 µM (inactive) |
| CCOC(=O)c1c(NC(=O)/C=C/C(=O)O)sc(C)c1-c1ccc(C(C)(C)C)cc1 | 25.6 µM (inactive) |
| CCOc1cc2c3c(c1)C(C)=CC(C)(C)N3C(=O)C2=O | 54.6 µM (inactive) |
| CCN(CC)CCn1c(SCC(=O)Nc2ccc(F)cc2)nc2c(sc3ccccc32)c1=O | > 80 µM (inactive) |
| COc1ccc(C2NCCc3c2[nH]c2ccccc32)cc1COc1ccc(F)cc1 (centres undefined) | > 80 µM (inactive) |

| Compound | EC50 |
| --- | --- |
| COc1ccc(N=Cc2c(O)c3ccccc3oc2=O)cc1 | 12.2 µM |
| Cc1cc(SCC(=O)c2ccc(O)c(O)c2)n2nc(C)c(-c3ccccc3)c2n1 | > 80 µM (inactive) |
| O=[N+]([O-])c1ccc(Cl)c(-c2ccc(/C=N/c3c(-c4ccco4)nc4ccccn34)o2)c1 | 39.3 µM (inactive) |
| COc1cc(SC#N)ccc1N=Cc1c(C)[nH]n(-c2ccc(C)c(C)c2)c1=O | > 80 µM (inactive) |
| COc1ccc(-c2cc(-c3ccccc3)c(C#N)c(S(C)(=O)=O)n2)cc1 | 4.88 µM |
| CCCCCCCCCCn1c2c(c(=N)c3c1CCC3)CCC2 | 24.9 µM (inactive) |
| Cc1ccc(CN2C(=O)C(=O)c3cc(C)ccc32)cc1 | 58.6 µM (inactive) |
| Cc1ccc2c(c1)c(N=NC(N)=S)c(O)n2Cc1ccccc1 | 61.8 µM (inactive) |
| O=C(Cn1c2ccc(F)cc2c2nc3n(c(=O)c21)CCS3)Nc1ccc(Cl)cc1F | > 80 µM (inactive) |
| COc1ccc2[nH]c3c(c2c1)CCN1C(=O)C(CC(=O)NC/C=C(\C)CCC=C(C)C)C[C@H](C(=O)N2CCOCC2)[C@@]31CCC1CCCC1 (some centres undefined) | > 80 µM (inactive) |
| CCN(CC)S(=O)(=O)c1ccc(N/N=C(\C)c2ccc3c(c2)OCO3)c([N+](=O)[O-])c1 | 22.1 µM (inactive) |
| Brc1ccc(-c2ccc(/C=N/Nc3nncc(-c4ccccc4)n3)o2)cc1 | 77.6 µM (inactive) |
| O=C1NC(=O)C(=Cc2cn(CCOc3ccc4c(c3)OCO4)c3ccccc23)C(=O)N1 | 31.2 µM (inactive) |
| CCOC(=O)c1nnc(-c2ccccc2)nc1Sc1ccccc1Cl | > 80 µM (inactive) |
| COC(=O)C1C(O)=C(C=Nc2cccc3ccccc23)C(=O)CC1(C)C (centres undefined) | 30.1 µM (inactive) |
| O=C(/C=C1\NC2(CCCC2)Cc2ccccc21)C(=O)N/N=C/c1ccc(O)c(O)c1 | 32 µM (inactive) |
| NS(=O)(=O)c1ccc(N=Cc2c(O)n(C3CCCCC3)c(=O)n(C3CCCCC3)c2=O)cc1 | > 80 µM (inactive) |
| CCc1nn(-c2cc(Oc3cccc4ccccc34)nc(-c3ccccc3)n2)c(N)c1C#N | 49.2 µM (inactive) |
| CC(=O)Nc1ccccc1Sc1ccc2c3c(cccc13)C(=O)N(c1ccc(C)cc1)C2=O | > 80 µM (inactive) |
| Cc1ccc(S(=O)(=O)N(CC(=O)N/N=C/c2ccc(F)cc2)c2cccc3cccnc23)cc1 | > 80 µM (inactive) |
